Experiment [1] addresses orotidine 5’-monophosphate decarboxylase (MtOMPDC) (Methanothermobacter thermautotrophicus, UniProt O26232, D70G).
Experiment [2] addresses orotidine 5’-monophosphate decarboxylase (MtOMPDC) (Methanothermobacter thermautotrophicus, UniProt O26232). The experiment is described as follows: X-ray crystal structure, […] Å. Type of experiment: biochemical.

Chain of orotidine 5’-monophosphate decarboxylase (MtOMPDC) (Methanothermobacter thermautotrophicus, UniProt O26232) (O26232 whole entry): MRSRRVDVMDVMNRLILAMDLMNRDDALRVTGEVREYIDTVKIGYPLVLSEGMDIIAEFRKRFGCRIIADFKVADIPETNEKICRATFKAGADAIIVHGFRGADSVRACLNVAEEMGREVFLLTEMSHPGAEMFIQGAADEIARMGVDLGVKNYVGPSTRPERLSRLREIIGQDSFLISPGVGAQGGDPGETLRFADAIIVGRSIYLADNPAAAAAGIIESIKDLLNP
Chain of orotidine 5’-monophosphate decarboxylase (MtOMPDC) (Methanothermobacter thermautotrophicus, UniProt O26232, D70G) (O26232 whole entry D70G): as the sequence (O26232 whole entry) above, with D70G counted along it

Turning to `O=c1[nH]c(=O)n([C@@H]2O[C@H](COP(=O)(O)O)[C@@H](O)[C@H]2O)cc1F` [FUMP], the “X-ray crystal structure, 1.3 Å; also H6 exchange by NMR” value in experiment [1] was “structures were obtained for D70G in the absence of ligands and complexed with UMP and FUMP”.

Molecule `O=C1CC(C(=O)O)N([C@@H]2O[C@H](COP(=O)(O)O)[C@@H](O)[C@H]2O)C(=O)N1` (stereo partly drawn) [(6R)-H2OMP] had a Ki in experiment [2] of 100 µM.

For the origin of these results see PMC2697262 (Biochemistry, 2009).
